The record followed here is paper PMC6422312 (Molecular pharmacology, 2010).

“Also recorded” adds a separate entry of the source.

Series [1] addresses T1, P-gp Q132R mutant (Homo sapiens, UniProt P08183, Q132R). Put plainly: cell-based.
Series [2] has as its target wild-type P-gp (Homo sapiens, UniProt P08183). Description: cell-based.
In series [3] the target is T2, P-gp Q132A mutant (Homo sapiens, UniProt P08183, Q132A). Description: cell-based.
Series [4] deals with P-gp Q132A/Q773A mutant (Homo sapiens, UniProt P08183, Q132A/Q773A). Description: cell-based.
In series [5] the target is T3, P-gp Q773A mutant (Homo sapiens, UniProt P08183, Q773A). Put plainly: cell-based.
The target in series [6] is T2, P-gp Q132A mutant. The note with it: alanine mutants (Q132A, Q773A) vs wild type, rhodamine123 efflux inhibition.
In series [7] the target is T1, P-gp Q132R mutant. The conditions noted are these: rhodamine123 efflux inhibition.
Series [8] deals with T4, P-gp Q773R mutant (Homo sapiens, UniProt P08183, Q773R). Description: cell-based. The note with it: IC50 for rhodamine123 efflux inhibition, HEK-293/EBNA cells.
In series [9] the target is T3, P-gp Q773A mutant. Description: Rhodamine123 efflux. The note with it: Q773A vs wild type. Format: cell-based.
Series [10] deals with P-gp Q132R/Q773R double mutant (Homo sapiens, UniProt P08183, Q132R/Q773R). Put plainly: Rhodamine123 efflux. Format: cell-based. The conditions noted are these: protein expressed at the cell surface.
Series [11] concerns the target T1, P-gp Q132R mutant. Put plainly: Rhodamine123 efflux. The series is classed as cell-based. The conditions noted are these: slope of first-order rate constant vs P-gp surface expression (MRK16).
Series [12] has as its target T2, P-gp Q132A mutant. Description: Rhodamine123 efflux. Format: cell-based. The note with it: Q132A vs wild type.
Series [13] concerns the target T4, P-gp Q773R mutant. Put plainly: Rhodamine123 efflux. The series is classed as cell-based. The note with it: slope of first-order rate constant vs P-gp surface expression (MRK16).

T1 sequence (P08183 whole entry Q132R): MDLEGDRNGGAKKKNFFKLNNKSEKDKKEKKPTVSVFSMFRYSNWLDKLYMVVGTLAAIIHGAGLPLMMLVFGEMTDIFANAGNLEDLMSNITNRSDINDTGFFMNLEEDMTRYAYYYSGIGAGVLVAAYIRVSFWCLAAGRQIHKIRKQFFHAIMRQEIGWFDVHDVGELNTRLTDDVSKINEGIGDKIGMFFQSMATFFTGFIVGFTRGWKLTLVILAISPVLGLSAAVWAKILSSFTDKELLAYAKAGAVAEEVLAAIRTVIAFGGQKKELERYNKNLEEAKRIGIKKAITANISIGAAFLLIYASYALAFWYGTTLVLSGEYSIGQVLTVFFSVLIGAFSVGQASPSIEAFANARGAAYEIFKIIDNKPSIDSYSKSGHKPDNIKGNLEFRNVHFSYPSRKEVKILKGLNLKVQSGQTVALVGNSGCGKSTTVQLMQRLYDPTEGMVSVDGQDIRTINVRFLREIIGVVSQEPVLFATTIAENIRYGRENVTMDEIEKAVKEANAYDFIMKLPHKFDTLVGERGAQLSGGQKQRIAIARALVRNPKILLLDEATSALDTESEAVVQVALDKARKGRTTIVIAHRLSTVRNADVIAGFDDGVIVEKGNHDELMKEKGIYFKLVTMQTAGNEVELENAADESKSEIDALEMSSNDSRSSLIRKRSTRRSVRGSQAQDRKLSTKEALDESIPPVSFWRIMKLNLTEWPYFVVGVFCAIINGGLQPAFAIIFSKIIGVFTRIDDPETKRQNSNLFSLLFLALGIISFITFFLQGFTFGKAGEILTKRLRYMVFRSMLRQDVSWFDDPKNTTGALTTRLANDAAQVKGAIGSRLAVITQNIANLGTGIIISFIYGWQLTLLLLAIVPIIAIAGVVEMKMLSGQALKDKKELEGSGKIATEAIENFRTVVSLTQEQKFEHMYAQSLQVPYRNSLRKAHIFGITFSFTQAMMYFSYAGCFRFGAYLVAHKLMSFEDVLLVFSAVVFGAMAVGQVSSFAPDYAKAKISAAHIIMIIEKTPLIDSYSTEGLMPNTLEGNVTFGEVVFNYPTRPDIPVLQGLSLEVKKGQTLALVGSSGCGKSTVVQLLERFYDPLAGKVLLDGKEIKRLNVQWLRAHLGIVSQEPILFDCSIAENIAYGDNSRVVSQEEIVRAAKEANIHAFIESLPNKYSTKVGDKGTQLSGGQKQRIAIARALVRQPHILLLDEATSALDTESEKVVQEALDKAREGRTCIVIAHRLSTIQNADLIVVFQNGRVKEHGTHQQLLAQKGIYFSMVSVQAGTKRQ
T2 sequence (P08183 whole entry Q132A): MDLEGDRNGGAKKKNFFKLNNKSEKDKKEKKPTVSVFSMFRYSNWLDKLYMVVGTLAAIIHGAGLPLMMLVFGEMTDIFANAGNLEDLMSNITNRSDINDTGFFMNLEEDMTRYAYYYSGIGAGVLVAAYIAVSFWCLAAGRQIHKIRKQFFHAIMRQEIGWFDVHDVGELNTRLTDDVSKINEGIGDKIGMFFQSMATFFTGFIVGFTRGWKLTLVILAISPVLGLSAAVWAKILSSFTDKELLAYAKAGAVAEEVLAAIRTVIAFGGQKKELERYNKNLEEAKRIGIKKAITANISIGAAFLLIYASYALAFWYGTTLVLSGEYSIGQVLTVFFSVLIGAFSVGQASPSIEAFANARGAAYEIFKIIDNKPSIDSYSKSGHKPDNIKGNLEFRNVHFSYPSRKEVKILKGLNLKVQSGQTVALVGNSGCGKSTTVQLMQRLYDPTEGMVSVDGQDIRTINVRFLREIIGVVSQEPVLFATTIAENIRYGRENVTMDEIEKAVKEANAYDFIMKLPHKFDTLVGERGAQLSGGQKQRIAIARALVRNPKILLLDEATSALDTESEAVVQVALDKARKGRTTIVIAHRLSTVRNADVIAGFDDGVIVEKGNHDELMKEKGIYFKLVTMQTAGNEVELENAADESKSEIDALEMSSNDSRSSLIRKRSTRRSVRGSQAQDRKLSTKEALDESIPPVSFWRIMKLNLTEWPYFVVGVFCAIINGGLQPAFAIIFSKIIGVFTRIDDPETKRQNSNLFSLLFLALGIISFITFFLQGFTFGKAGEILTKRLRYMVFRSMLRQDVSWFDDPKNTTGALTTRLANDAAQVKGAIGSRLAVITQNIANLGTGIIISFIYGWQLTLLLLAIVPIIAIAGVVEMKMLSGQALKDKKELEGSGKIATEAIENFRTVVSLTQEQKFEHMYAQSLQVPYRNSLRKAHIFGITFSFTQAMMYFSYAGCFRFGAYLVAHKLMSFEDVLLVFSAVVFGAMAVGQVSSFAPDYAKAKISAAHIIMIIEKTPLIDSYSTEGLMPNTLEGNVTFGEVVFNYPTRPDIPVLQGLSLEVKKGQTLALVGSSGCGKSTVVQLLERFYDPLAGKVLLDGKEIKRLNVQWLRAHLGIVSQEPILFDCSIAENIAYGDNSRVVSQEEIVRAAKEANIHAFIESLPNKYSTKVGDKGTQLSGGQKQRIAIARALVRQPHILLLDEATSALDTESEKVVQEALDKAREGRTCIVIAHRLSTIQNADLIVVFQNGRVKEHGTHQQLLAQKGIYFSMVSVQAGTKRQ
T4 sequence (P08183 whole entry Q773R): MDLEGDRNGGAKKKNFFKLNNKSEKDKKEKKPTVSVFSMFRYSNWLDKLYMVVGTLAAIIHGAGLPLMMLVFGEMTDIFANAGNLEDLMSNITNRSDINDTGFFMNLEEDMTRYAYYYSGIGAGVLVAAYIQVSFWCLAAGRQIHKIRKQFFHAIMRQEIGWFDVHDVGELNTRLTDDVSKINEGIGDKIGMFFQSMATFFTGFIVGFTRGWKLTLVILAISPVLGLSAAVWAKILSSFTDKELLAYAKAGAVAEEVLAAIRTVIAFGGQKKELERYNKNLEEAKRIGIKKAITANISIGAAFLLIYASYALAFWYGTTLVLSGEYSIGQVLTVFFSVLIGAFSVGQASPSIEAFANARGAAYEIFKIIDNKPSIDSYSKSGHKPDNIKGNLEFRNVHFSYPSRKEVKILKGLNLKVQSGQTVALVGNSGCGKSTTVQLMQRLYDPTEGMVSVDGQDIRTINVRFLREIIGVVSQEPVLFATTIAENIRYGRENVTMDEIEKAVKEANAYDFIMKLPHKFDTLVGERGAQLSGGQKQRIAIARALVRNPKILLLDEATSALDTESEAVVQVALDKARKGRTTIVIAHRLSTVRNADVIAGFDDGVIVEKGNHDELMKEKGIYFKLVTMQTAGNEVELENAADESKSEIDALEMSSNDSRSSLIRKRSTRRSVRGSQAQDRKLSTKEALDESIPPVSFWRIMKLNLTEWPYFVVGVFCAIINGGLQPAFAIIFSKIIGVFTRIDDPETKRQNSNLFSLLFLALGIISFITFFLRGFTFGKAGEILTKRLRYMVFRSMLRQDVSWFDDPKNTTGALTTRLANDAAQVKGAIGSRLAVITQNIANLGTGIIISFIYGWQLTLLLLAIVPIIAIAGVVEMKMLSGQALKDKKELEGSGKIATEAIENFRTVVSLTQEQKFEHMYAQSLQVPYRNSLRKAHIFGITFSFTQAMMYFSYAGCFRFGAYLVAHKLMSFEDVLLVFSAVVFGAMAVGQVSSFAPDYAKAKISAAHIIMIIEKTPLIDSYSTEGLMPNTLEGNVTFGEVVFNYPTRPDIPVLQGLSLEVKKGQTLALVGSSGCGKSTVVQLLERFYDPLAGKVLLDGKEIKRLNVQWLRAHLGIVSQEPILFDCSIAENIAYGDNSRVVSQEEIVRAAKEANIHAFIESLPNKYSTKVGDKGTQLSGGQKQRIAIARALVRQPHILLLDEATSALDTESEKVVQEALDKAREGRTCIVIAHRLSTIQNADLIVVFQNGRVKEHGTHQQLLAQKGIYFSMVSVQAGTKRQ
T3 sequence (P08183 whole entry Q773A): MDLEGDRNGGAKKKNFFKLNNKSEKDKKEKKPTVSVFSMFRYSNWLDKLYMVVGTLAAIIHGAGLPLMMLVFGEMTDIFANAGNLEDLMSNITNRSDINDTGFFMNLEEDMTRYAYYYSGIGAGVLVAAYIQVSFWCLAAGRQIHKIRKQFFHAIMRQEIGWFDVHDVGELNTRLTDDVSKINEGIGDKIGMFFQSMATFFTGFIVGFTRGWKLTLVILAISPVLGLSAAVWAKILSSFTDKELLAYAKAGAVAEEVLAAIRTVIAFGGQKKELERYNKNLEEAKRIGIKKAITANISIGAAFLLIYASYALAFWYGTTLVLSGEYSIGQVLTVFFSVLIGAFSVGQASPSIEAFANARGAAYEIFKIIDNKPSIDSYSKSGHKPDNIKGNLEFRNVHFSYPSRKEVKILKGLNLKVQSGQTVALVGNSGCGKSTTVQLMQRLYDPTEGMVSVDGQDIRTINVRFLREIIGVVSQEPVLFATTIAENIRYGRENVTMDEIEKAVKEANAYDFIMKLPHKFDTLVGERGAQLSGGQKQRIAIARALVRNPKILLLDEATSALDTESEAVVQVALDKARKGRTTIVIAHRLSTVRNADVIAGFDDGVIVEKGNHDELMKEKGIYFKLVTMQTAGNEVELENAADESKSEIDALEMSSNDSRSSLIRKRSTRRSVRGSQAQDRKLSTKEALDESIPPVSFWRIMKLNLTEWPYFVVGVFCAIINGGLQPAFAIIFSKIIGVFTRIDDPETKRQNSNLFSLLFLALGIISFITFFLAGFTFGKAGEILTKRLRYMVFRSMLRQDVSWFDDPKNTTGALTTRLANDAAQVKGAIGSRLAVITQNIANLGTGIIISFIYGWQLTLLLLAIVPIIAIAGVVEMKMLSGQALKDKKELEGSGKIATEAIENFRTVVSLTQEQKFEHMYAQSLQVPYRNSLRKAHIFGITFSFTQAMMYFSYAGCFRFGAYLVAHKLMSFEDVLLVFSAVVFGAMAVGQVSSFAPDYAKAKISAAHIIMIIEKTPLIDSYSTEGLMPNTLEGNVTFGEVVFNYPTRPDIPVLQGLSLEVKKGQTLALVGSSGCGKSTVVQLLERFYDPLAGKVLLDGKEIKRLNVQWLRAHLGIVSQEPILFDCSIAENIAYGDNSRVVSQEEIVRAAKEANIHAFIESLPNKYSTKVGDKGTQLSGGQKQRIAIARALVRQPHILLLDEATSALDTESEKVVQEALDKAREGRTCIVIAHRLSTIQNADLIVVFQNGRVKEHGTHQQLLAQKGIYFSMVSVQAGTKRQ

For orientation: IC50 means the point on the concentration scale where inhibition reaches its midpoint. Read a low IC50 as higher potency. Consider `O=C(CCc1ccccc1)c1ccccc1OCC(O)CN1CCN(c2ccc(F)cc2)CC1` (stereo not drawn) [GPV31, 1-(2-(3-(4-(4-fluorophenyl)piperazin-1-yl)-2-hydroxypropoxy)phenyl)-3-phenylpropan-1-one], for which the IC50 in [1] turned out to be 710 ± 460 nM; in series [2], 110 ± 60 nM; in [3], 100 ± 30 nM; in series [4], 120 ± 10 nM; in series [5] it was 110 ± 50 nM; in series [8] it was 20 ± 10 nM. For the same molecule, in [6], the “Change of IC50 values on mutation of glutamine residues to alanine” value is “did not change”. Moreover, the “Fold difference in IC50 values between the two Arg mutants” value in series [7] (Q132R vs Q773R) is given as 36 fold. For the same molecule, in series [7] (Q132R vs wild-type), the “Fold higher IC50 in Q132R than in wild-type P-gp” value was approximately 7 fold.

In the case of `CCCN(CC(O)COc1ccccc1C(=O)CCc1ccccc1)C(=O)c1ccccc1` (stereo not drawn) [GPV366, N-(2-hydroxy-3-(2-(3-phenylpropanoyl)phenoxy)-propyl)-N-propylbenzamide], the IC50 in series [1] is 2640 ± 590 nM; in series [2], 2600 ± 690 nM; in [3], 2570 ± 690 nM; in series [4], 2870 ± 630 nM; in series [5] it was 2400 ± 1470 nM; in series [8], 2090 ± 900 nM. Moreover, the “Change of IC50 values on mutation of glutamine residues to alanine” value in [6] is reported as “did not change”.

With `COC(=O)c1ccccc1-c1c2ccc(=N)cc-2oc2cc(N)ccc12` [rhodamine123], the “Effect of mutation on rhodamine123 transport” value in [9] and in series [12] was “did not affect; also recorded: comparable with wild-type” in each case. Also, in [10], the Rhodamine123 transport activity entry is listed as “complete loss of transport activity”. Moreover, the figures for the “Rhodamine123 transport rate relative to wild-type” value in [11] and in series [13] were 52 ± 13 % of wild-type and 24 ± 6 % of wild-type, respectively.
